# Assay results published in patent US20180206491A1, “SUBSTITUTED CYCLIC ARYL AND HETEROARYL CARBOXYLIC ACID HYDRAZIDES OR SALTS THEREOF AND USE THEREOF TO INCREASE STRESS TOLERANCE IN PLANTS” (Bayer CropScience Aktiengesellschaft, priority 2015, published 2018).
# Key:
# Details in all cases: spray application
# Brassica napus [1] = assay: In vivo analyses: drought stress, visual scoring of damage, efficacy EF
# Procedure: (§1) Seeds of monocotyledonous and dicotyledonous crop plants were sown in sandy loam in wood-fiber or plastic pots, covered with soil or sand and cultivated in a greenhouse under good growth conditions. The trial plants were treated at the early leaf stage (BBCH10-BBCH13). To assure uniform water supply before commencement of stress, the potted plants were supplied with water by dam irrigation prior to substance application. The inventive compounds formulated in the form of wettable powders (WP) were sprayed onto the green parts of the plants as an aqueous suspension at an equivalent water application rate of 600 I/ha with addition of 0.2% wetting agent (e.g. agrotin). Substance application was followed immediately by stress treatment of the plants. For this purpose, the wood-fiber pots were transferred in plastic inserts in order to prevent them from subsequently drying out too quickly. Drought stress was induced by gradual drying out under the following conditions: “Day”: 14 hours with illumination at ˜26-30° C. “Night”: 10 hours without illumination at ˜18-20° C. The duration of the respective stress phases was guided mainly by the condition of the stressed control plants. It was ended (by re-irrigating and transfer to a greenhouse with good growth conditions) as soon as irreversible damage was observed on the stressed control plants. The end of the stress phase was followed by an about 4-7-day recovery phase, during which the plants were once again kept under good growth conditions in a greenhouse. The duration of the recovery phase was guided mainly by when the trial plants had attained a state which enabled visual scoring of potential effects, and is therefore variable. Once this juncture was reached, the intensities of damage were scored visually in comparison to untreated, unstressed controls of the same age. The damage intensity was at first assessed in percent. These values were then used to calculate the efficacy of the test compounds by the following formula: [formula] EF: Efficacy DIs: Damage intensity of the stressed control plants DIt: Damage intensity of the stressed plants treated with test compound The values reported in tables A-1 to A-3 below are mean values from at least one trial with at least two repeats, showing the effects of selected compounds of the general formula (I) under drought stress on various crop plants.
# Triticum aestivum [2] = assay: as above
# Procedure: as §1
# Zea mays = assay: as above
# Procedure: as §1
# Brassica napus [3] = assay: In vivo analyses Part B: drought stress, appearance versus stressed control plants in categories; set-up: key: 0: no positive effect; +: slight positive effect; ++: clear positive effect; +++: strong positive effect
# Procedure: (§2) Seeds of monocotyledonous and dicotyledonous crop plants were sown in sandy loam in plastic pots, covered with soil or sand and cultivated in a greenhouse under good growth conditions. The test plants are treated at the early leaf stage (BBCH10-BBCH13). To assure uniform water supply before commencement of stress, the potted plants were supplied with water by dam irrigation prior to substance application. The inventive compounds were first formulated as wettable powders (WP) or dissolved in a solvent mixture. The further dilution was effected with water supplemented with 0.2% wetting agent (e.g. agrotin). The finished spray liquor was sprayed onto the green parts of the plant at an equivalent water application rate of 600 l/ha. Substance application was followed immediately by stress treatment of the plants. Drought stress was induced by gradual drying out under the following conditions: “Day”: 14 hours with illumination at ˜26-30° C. “Night”: 10 hours without illumination at ˜18-20° C. The duration of the respective stress phases was guided mainly by the condition of the stressed control plants. It was ended (by re-irrigating and transfer to a greenhouse with good growth conditions) as soon as irreversible damage was observed on the stressed control plants. The end of the stress phase was followed by an about 4-7-day recovery phase, during which the plants were once again kept under good growth conditions in a greenhouse. The duration of the recovery phase was guided mainly by when the trial plants had attained a state which enabled visual scoring of potential effects, and was therefore variable. Once this juncture had been reached, the appearance of the plants treated with test substances was recorded in comparison to the stressed control plants by the following categories: • 0 no positive effect • + slight positive effect • ++ clear positive effect • +++ strong positive effect In order to rule out any influence on the effects observed by any fungicidal or insecticidal action of the test compounds, it was additionally ensured that the tests proceeded without fungal infection or insect infestation. The values reported in tables B-1 and B-2 below are mean values of the results from at least three repeats. Effects of selected compounds of the general formula (I) under drought stress according to the following tables B-1 and B-2: […]
# Triticum aestivum [4] = assay: as above; set-up: key: 0: no positive effect; +: slight positive effect; ++: clear positive effect; +++: strong positive effect
# Procedure: as §2
smiles,measurement,setting,value
O=C(c1ccncc1)N(Cc1ccccc1Cl)N1CCOCC1 [C7-1],EF [%] (BRSNS),Brassica napus [1]; 2.5 g/ha,>5%
N#Cc1ccccc1CN(C(=O)c1ccncc1)N1CCCCC1 [C4-61],EF [%] (TRZAS),Triticum aestivum [2]; 25 g/ha,>5%
same,EF [%] (ZEAMX),Zea mays; 250 g/ha,>5%
O=C(c1cnccc1C(F)(F)F)N(Cc1ccccn1)N1CCOCC1 [B5-21],Effect (BRSNS),Brassica napus [3]; 250 g/ha,+
O=C(c1ccc(Cl)cc1Cl)N(Cc1ccc(F)cc1F)N1CCCC1 [A8-15],Effect (TRZAS),Triticum aestivum [4]; 25 g/ha,+
CN1CCN(N(Cc2ccccc2C#N)C(=O)c2ccncc2)CC1 [C6-61],EF [%] (TRZAS),Triticum aestivum [2]; 25 g/ha,>5%
same,EF [%] (BRSNS),Brassica napus [1]; 2.5 g/ha,>5%
O=C(c1ccccc1C(F)(F)F)N(Cc1ccc2ccccc2n1)N1CCCC1 [A2-122],EF [%] (TRZAS),Triticum aestivum [2]; 250 g/ha,>5%
same,EF [%] (ZEAMX),Zea mays; 250 g/ha,>5%
same,EF [%] (BRSNS),Brassica napus [1]; 250 g/ha,>5%
"CN1CCN(N(Cc2ccccn2)C(=O)c2ccccc2C(F)(F)F)CC1 [A12-21, N—(N-Methylpyridazin-1-yl)-N-(pyridin-2-ylmethyl)-2-(trifluoromethyl)-benzamide]",Effect (BRSNS),Brassica napus [3]; 250 g/ha,+
O=C(c1cnccc1C(F)(F)F)N(Cc1ncc(C(F)(F)F)cc1Cl)N1CCCC1 [B2-36],Effect (TRZAS),Triticum aestivum [4]; 25 g/ha,+
same,Effect (BRSNS),Brassica napus [3]; 250 g/ha,+
COC1CCCN(N(Cc2ccccn2)C(=O)c2ccccc2C(F)(F)F)C1 (stereo not shown) [A13-21],Effect (TRZAS),Triticum aestivum [4]; 250 g/ha,+
CN1CCN(N(Cc2ccccc2Cl)C(=O)c2ccccc2C(F)(F)F)CC1 [A12-1],Effect (TRZAS),Triticum aestivum [4]; 250 g/ha,+
"N#Cc1ccccc1CN(C(=O)c1cnccc1C(F)(F)F)N1CCCC1 [B2-61, N-(2-Cyanobenzyl)-N-(pyrrolidin-1-yl)-4-(trifluoromethyl)nicotinamide]",EF [%] (TRZAS),Triticum aestivum [2]; 25 g/ha,>5%
same,EF [%] (ZEAMX),Zea mays; 250 g/ha,>5%
same,EF [%] (BRSNS),Brassica napus [1]; 25 g/ha,>5%
COC1CCCN(N(Cc2ccccc2Cl)C(=O)c2ccccc2C(F)(F)F)C1 (stereo not shown) [A13-1],Effect (TRZAS),Triticum aestivum [4]; 250 g/ha,+
same,Effect (BRSNS),Brassica napus [3]; 250 g/ha,+
COc1c(C)cnc(CN(C(=O)c2ccccc2C(F)(F)F)N2CCCC2)c1C [A2-37],EF [%] (TRZAS),Triticum aestivum [2]; 250 g/ha,>5%
same,EF [%] (ZEAMX),Zea mays; 25 g/ha,>5%
COC1CCCN(N(Cc2cccc(C#N)c2)C(=O)c2ccncc2)C1 (stereo not shown) [C8-62],EF [%] (ZEAMX),Zea mays; 250 g/ha,>5%
same,EF [%] (BRSNS),Brassica napus [1]; 2.5 g/ha,>5%
O=C(c1cnccc1C(F)(F)F)N(Cc1ccc(F)cc1F)N1CCCC1 [B2-15],Effect (TRZAS),Triticum aestivum [4]; 250 g/ha,+
CN1CCN(N(Cc2ccccc2Cl)C(=O)c2cnccc2C(F)(F)F)CC1 [B6-1],Effect (TRZAS),Triticum aestivum [4]; 250 g/ha,+
COc1c(C)cnc(CN(C(=O)c2ccc(F)cc2C(F)(F)F)N2CCCC2)c1C [A6-37],EF [%] (BRSNS),Brassica napus [1]; 2.5 g/ha,>5%
O=C(c1cnccc1C(F)(F)F)N(Cc1ccc(Cl)nc1)N1CCCC1 [B2-94],Effect (TRZAS),Triticum aestivum [4]; 25 g/ha,+
O=C(c1ccccc1C(F)(F)F)N(Cc1ccc(F)cc1F)N1CCCC1 [A2-15],Effect (TRZAS),Triticum aestivum [4]; 250 g/ha,+
same,Effect (BRSNS),Brassica napus [3]; 250 g/ha,+
COC1CCCN(N(Cc2ccccc2C#N)C(=O)c2ccccc2C(F)(F)F)C1 (stereo not shown) [A13-61],Effect (BRSNS),Brassica napus [3]; 25 g/ha,+
CC(c1ccc(F)cc1)N(C(=O)c1cnccc1C(F)(F)F)N1CCCC1 (stereo not shown) [B2-159],Effect (TRZAS),Triticum aestivum [4]; 250 g/ha,+
same,Effect (BRSNS),Brassica napus [3]; 250 g/ha,+
CN1CCN(N(Cc2nccc(Cl)c2Cl)C(=O)c2ccccc2C(F)(F)F)CC1 [A12-40],Effect (TRZAS),Triticum aestivum [4]; 25 g/ha,+
same,Effect (BRSNS),Brassica napus [3]; 250 g/ha,+
COC1CCCN(N(Cc2nccc(Cl)c2Cl)C(=O)c2ccccc2C(F)(F)F)C1 (stereo not shown) [A13-40],Effect (TRZAS),Triticum aestivum [4]; 250 g/ha,+
"COC1CCN(N(Cc2ccccn2)C(=O)c2ccccc2C(F)(F)F)C1 (stereo not shown) [A3-21, N-(3-Methoxypyrrolidin-1-yl)-N-(pyridin-2-ylmethyl)-2-(trifluoromethyl)benzamide]",EF [%] (ZEAMX),Zea mays; 250 g/ha,>5%
O=C(c1cnccc1C(F)(F)F)N(Cc1ccccc1F)N1CCOCC1 [B5-11],Effect (BRSNS),Brassica napus [3]; 250 g/ha,+
O=C(c1ccccc1Cl)N(Cc1ccc(Cl)nc1)N1CCCC1 [A7-94],Effect (TRZAS),Triticum aestivum [4]; 25 g/ha,+
"N#Cc1ccccc1CN(C(=O)c1cnccc1C(F)(F)F)N1CCOCC1 [B5-61, N-(2-Cyanobenzyl)-N-(morpholin-4-yl)-4-(trifluoromethyl)-nicotinamide]",Effect (TRZAS),Triticum aestivum [4]; 250 g/ha,+
same,Effect (BRSNS),Brassica napus [3]; 250 g/ha,+
O=C(c1ccc(Cl)c(Cl)c1)N(Cc1cc(Cl)ccc1Cl)N1CCCC1 [A5-6],EF [%] (ZEAMX),Zea mays; 250 g/ha,>5%
COC1CCCN(N(Cc2ccccc2C#N)C(=O)c2cnccc2C(F)(F)F)C1 (stereo not shown) [B7-61],Effect (TRZAS),Triticum aestivum [4]; 250 g/ha,+
COC1CCCN(N(Cc2cccc(Cl)c2)C(=O)c2ccncc2)C1 (stereo not shown) [C8-2],EF [%] (BRSNS),Brassica napus [1]; 250 g/ha,>5%
COC1CCCN(N(Cc2ccccn2)C(=O)c2cnccc2C(F)(F)F)C1 (stereo not shown) [B7-21],Effect (BRSNS),Brassica napus [3]; 25 g/ha,+
CN1CCN(N(Cc2ccccn2)C(=O)c2cnccc2C(F)(F)F)CC1 [B6-21],Effect (TRZAS),Triticum aestivum [4]; 250 g/ha,+
same,Effect (BRSNS),Brassica napus [3]; 250 g/ha,+
N#Cc1ccccc1CN(C(=O)c1cccc2nnsc12)N1CCCC1 [A14-61],Effect (TRZAS),Triticum aestivum [4]; 25 g/ha,+
same,Effect (BRSNS),Brassica napus [3]; 250 g/ha,+
COC1CCCN(N(Cc2ccccc2Cl)C(=O)c2cnccc2C(F)(F)F)C1 (stereo not shown) [B7-1],Effect (TRZAS),Triticum aestivum [4]; 25 g/ha,++
CN1CCN(N(Cc2ccccc2C#N)C(=O)c2cnccc2C(F)(F)F)CC1 [B6-61],Effect (TRZAS),Triticum aestivum [4]; 250 g/ha,+
COc1ccccc1C(=O)N(Cc1ccc(F)cc1F)N1CCCC1 [A9-15],Effect (TRZAS),Triticum aestivum [4]; 25 g/ha,+
O=C(c1ccc(F)cc1C(F)(F)F)N(Cc1ccccc1Cl)N1CCCC1 [A6-1],EF [%] (TRZAS),Triticum aestivum [2]; 25 g/ha,>5%
same,EF [%] (ZEAMX),Zea mays; 250 g/ha,>5%
N#Cc1ccccc1CN(C(=O)c1ccnnc1)N1CCCC1 [F1-61],Effect (TRZAS),Triticum aestivum [4]; 100 g/ha,+
same,Effect (BRSNS),Brassica napus [3]; 25 g/ha,+
O=C(c1ccccc1Cl)N(Cc1ccc(F)cc1F)N1CCCC1 [A7-15],Effect (TRZAS),Triticum aestivum [4]; 25 g/ha,+
same,Effect (BRSNS),Brassica napus [3]; 250 g/ha,+
